Experiments:
5-HT2C receptor [1] = biological target: T1, 5-HT2C receptor (Homo sapiens, UniProt P28335); experiment: IP accumulation assay in HEK293 cells expressing recombinant 5-HT2 receptors; assay type: cell-based; settings: 2 h at 37° C.
T1 construct: expressed in transfected cells; host or cells: HEK293
T1 sequence (P28335 33-458): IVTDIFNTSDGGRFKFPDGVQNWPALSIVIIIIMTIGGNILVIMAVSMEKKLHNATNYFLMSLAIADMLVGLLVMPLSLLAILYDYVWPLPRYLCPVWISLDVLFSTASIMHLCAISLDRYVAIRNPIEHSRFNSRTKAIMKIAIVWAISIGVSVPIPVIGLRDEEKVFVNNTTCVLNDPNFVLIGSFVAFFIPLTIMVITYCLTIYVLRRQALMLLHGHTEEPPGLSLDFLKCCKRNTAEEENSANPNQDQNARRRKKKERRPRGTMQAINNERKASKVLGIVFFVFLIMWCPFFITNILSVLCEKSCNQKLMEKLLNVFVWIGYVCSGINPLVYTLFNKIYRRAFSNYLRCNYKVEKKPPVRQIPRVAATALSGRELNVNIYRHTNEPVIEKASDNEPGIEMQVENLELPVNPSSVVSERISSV
Description: (§1) HEK293 cells expressing recombinant 5-HT2 receptors were added to sterile poly-D-lysine-coated 96-well microtiter plates (35,000 cells/well) and labeled with 0.6 μCi/well of [^3H]inositol in myoinositol-free DMEM for 18 h. Unincorporated [^3H]inositol was removed by aspiration and replaced with fresh myoinositol-free DMEM supplemented with LiCl (10 mM final) and pargyline (10 μM final). Serially diluted test compounds were then added and incubation was conducted for 2 h at 37° C. Incubations were then terminated by lysing cells with the addition of ice-cold 0.1 M formic acid followed by freezing at −80° C. After thawing, total [^3H]inositol phosphates were resolved from [^3H]inositol using AG1-X8 ion exchange resin (Bio-Rad) and [^3H]inositol phosphates were measured by scintillation counting using a Perkin Elmer TopCount® scintillation counter. All EC50 determinations were performed using 10 different concentrations and triplicate determinations were made at each test concentration.

5-HT2C receptor [2] = biological target: T1, 5-HT2C receptor; experiment: Radioligand binding assay, [125I]DOI competition; settings: HEK293 cell membranes, read-out: DOI Binding Ki 2C
Description: (§2) HEK293 cells stably expressing recombinant 5-HT2 receptors were harvested, suspended in ice-cold phosphate buffered saline, pH 7.4 (PBS), and then centrifuged at 48,000 g for 20 min at 4° C. The resulting cell pellet was then re-suspended in wash buffer containing 20 mM HEPES, pH 7.4 and 0.1 mM EDTA, homogenized on ice using a Brinkman Polytron, and centrifuged (48,000 g for 20 min at 4° C.). The pellet was then resuspended in 20 mM HEPES, pH 7.4, homogenized on ice, and centrifuged (48,000 g for 20 min at 4° C.). Crude membrane pellets were stored at −80° C. until used for radioligand binding assays.
Radioligand binding assays were performed using the commercially available 5-HT2 receptor agonist [^125I]DOI as the radioligand and nonspecific binding was determined in the presence of unlabeled DOI at a saturating concentration of 10 μM. Competition experiments utilized 5-HT2 receptor expressing HEK293 cell membranes obtained as described in Example 3 (15-25 μg membrane protein/well) and radioligand at final assay concentrations of 0.4 to 0.6 nM. […] Finally, 25 μL of BetaScint™ scintillation cocktail was added to each well and the plates were counted in a Packard TopCount® scintillation counter. […]

5-HT2B receptor = biological target: T2, 5-HT2B receptor (Homo sapiens, UniProt P41595); experiment: Radioligand binding assay, [125I]DOI competition; settings: HEK293 cell membranes, read-out: DOI Binding Ki 2B
T2 construct: expressed in transfected cells; host or cells: HEK293
Description: as §2
(§3) Experiments comprised addition of 95 μL, of assay buffer (20 mM HEPES, pH 7.4, 10 mM MgCl2), 50 μL, of membranes, 50 μL, of radioligand stock, and 5 μL of test compound diluted in assay buffer to 96-well microtiter plates, which were then incubated for 1 h at room temperature. Assay incubations were terminated by rapid filtration through PerkinElmer F/C filtration plates under reduced pressure using a 96-well Packard filtration apparatus, followed by washing three times with ice cold assay buffer. Plates were then dried at 45° C. for a minimum of 2 h. Finally, 25 μL of BetaScint™ scintillation cocktail was added to each well and the plates were counted in a Packard TopCount® scintillation counter. […]

5-HT2A receptor [3] = biological target: T3, 5-HT2A receptor (Homo sapiens, UniProt P28223); experiment: Radioligand binding assay, [125I]DOI competition; settings: HEK293 cell membranes, read-out: DOI Binding Ki 2A
T3 construct: expressed in transfected cells; host or cells: HEK293
Description: as §2, §3

5-HT2A receptor [4] = biological target: T3, 5-HT2A receptor; experiment: IP accumulation assay in HEK293 cells expressing recombinant 5-HT2 receptors; assay type: cell-based; settings: 2 h at 37° C.
Description: as §1

[5] = reports that led to withdrawal in 1998; cited from earlier work
[6] = a patient with Lennox-Gastaut syndrome; cited from earlier work
[7] = one study, patients without diabetes; cited from earlier work
[8] = cited from earlier work
[9] = cited from earlier work; remark: listed apart in the source
[10] = pivotal phase 3 program, up to two years
[11] = top quartile of patients, second phase 3 trial

T3 sequence (P28223 whole entry): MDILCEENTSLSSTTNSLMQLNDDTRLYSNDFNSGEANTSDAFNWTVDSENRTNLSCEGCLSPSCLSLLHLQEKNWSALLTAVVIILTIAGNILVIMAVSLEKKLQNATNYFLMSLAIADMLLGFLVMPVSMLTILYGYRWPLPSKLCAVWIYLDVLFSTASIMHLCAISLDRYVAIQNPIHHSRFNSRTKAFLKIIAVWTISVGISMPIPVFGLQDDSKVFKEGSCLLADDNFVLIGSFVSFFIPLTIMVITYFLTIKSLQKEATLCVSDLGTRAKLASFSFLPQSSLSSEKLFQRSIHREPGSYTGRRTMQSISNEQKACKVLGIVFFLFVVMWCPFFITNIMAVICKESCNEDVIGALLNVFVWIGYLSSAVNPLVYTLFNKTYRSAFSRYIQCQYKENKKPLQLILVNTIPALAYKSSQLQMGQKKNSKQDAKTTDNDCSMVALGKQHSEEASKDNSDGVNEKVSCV
T2 sequence (P41595 whole entry): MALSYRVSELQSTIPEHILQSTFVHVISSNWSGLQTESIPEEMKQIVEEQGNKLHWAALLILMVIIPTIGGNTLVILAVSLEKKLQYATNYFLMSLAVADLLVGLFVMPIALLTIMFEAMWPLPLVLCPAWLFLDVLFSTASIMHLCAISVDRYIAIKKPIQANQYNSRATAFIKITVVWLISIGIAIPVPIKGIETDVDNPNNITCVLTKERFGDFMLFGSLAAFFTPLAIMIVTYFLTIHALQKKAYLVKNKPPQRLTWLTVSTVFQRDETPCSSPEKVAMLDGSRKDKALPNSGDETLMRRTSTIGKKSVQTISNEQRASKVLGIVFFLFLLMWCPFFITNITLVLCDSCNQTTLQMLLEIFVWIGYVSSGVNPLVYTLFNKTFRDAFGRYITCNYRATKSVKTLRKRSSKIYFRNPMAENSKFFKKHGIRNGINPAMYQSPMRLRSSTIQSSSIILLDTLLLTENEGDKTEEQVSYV

## CCC1CN2CCNCc3ccc(C(=O)NCC(F)F)c1c32 (single isomer, unassigned) [1st eluting enantiomer in example 1.5, N-(2,2-difluoroethyl)-7-ethyl-1,2,3,4,6,7-hexahydro-[1,4]diazepino[6,7,1-hi]indole-8-carboxamide]
5-HT2C receptor [1]
  EC50: 15200 nM

## CCC1CN2CCNCc3ccc(C(=O)NCC(F)F)c1c32 (single isomer, unassigned) [2nd eluting enantiomer in example 1.5, N-(2,2-difluoroethyl)-7-ethyl-1,2,3,4,6,7-hexahydro-[1,4]diazepino[6,7,1-hi]indole-8-carboxamide]
5-HT2C receptor [2]
  Ki: 19.7 nM
5-HT2C receptor [1]
  EC50: 7.09 nM
5-HT2B receptor
  Ki: 92300 nM
5-HT2A receptor [3]
  Ki: 6580 nM

## CC1(C)CN2CCNCc3ccc(C(=O)NCC(F)F)c1c32 [Compound 6, N-(2,2-difluoroethyl)-7,7-dimethyl-1,2,3,4,6,7-hexahydro-[1,4]diazepino[6,7,1-hi]indole-8-carboxamide]
5-HT2C receptor [1]
  EC50: 195 nM

## O=C(NCC(F)F)c1ccc2c3c1C1(CCC1)CN3CCNC2 [Compound 7, N-(2,2-difluoroethyl)-2,3,4,6-tetrahydro-1H-spiro[[1,4]diazepino[6,7,1-hi]indole-7,1′-cyclobutane]-8-carboxamide]
5-HT2A receptor [4]
  EC50: 160 nM
5-HT2C receptor [2]
  Ki: 36.6 nM
5-HT2C receptor [1]
  EC50: 17.7 nM
5-HT2B receptor
  Ki: 6810 nM
5-HT2A receptor [3]
  Ki: 6750 nM

## CCN[C@@H](C)Cc1cccc(C(F)(F)F)c1 [d-fenfluramine]
[5]
  patients with reported cardiac valve defects: up to one third

## CCNC(C)Cc1cccc(C(F)(F)F)c1 (stereo not drawn) [fenfluramine]
[6]
  reduction in seizure frequency during treatment: two-thirds

## C[C@H]1CNCCc2ccc(Cl)cc21 [lorcaserin, (R)-8-chloro-1-methyl-2,3,4,5-tetrahydro-1H-3-benzazepine]
[7]
  insulin resistance (HOMA-IR) change: −0.4
[8]; 10 mg BID, type 2 diabetes
  reduction in HbA1c: 0.9%
[8]; patients with type 2 diabetes
  decrease of mean daily doses of sulfonylureas and thiazolidinediones: 16-24%
[9]; first phase 3 trial, based on a normal BMI of 25
  excess body weight lost: about one-third
[9]; [10]
  patients who achieved at least 5% weight loss: About two-thirds
  patients who achieved at least 10% weight loss: over one-third
[9]; [11]
  average weight loss: 35 pounds
  average weight loss, of body weight: 16%

Reference: patent publication US10392390B2, “5-HT2C receptor agonists and compositions and methods of use” (Arena Pharmaceuticals, Inc., priority 2015, dated 2019)
